Test results published in ChEMBL document CHEMBL1201862, “PubChem BioAssay data set” (2004).
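Step 1: Grow cells in 96-well plates. Step 2: Expose to compound for 48 hours at 5 concentrations. Step 3: Interpolate endpoints linearly; if unreached, use highest concentration. GI50: concentration for 50% inhibition of growth.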 Calls of active or inactive are those of the source. Rule as the data show it: active = GI50 up to about 1.1 µM and inactive = higher.

Key:
Assay in all cases: NCI tumour cell line growth inhibition, 48 h
[1] = system: ACHN
[2] = system: COLO 205
[3] = system: HCT-116
[4] = system: HL-60
[5] = system: HOP-92
[6] = system: K562
[7] = system: KM12
[8] = system: LOX IMVI
[9] = system: M14
[10] = system: NCI-H23
[11] = system: OVCAR-3
[12] = system: OVCAR-5
[13] = system: OVCAR-8
[14] = system: SF-295
[15] = system: SF-539
[16] = system: SK-MEL-28
[17] = system: SK-MEL-5
[18] = system: SW-620

Row | SMILES | GI50 [1] | GI50 [2] | GI50 [3] | GI50 [4] | GI50 [5] | GI50 [6] | GI50 [7] | GI50 [8] | GI50 [9] | GI50 [10] | GI50 [11] | GI50 [12] | GI50 [13] | GI50 [14] | GI50 [15] | GI50 [16] | GI50 [17] | GI50 [18]
1 | O=C(c1nc2ccccc2nc1O)C(O)c1ccco1 (stereo not given) | 54.5 µM (inactive) | > 100 µM (inactive) | > 100 µM (inactive) | > 100 µM (inactive) | > 100 µM (inactive) | > 100 µM (inactive) | 76.4 µM (inactive) | > 100 µM (inactive) | > 100 µM (inactive) | > 100 µM (inactive) | > 100 µM (inactive) | > 100 µM (inactive) | > 100 µM (inactive) | > 100 µM (inactive) | > 100 µM (inactive) | > 100 µM (inactive) | 64.1 µM (inactive) | > 100 µM (inactive)
2 | Cc1ccc(C2(C)NC(=S)N(NC(N)=S)C2=S)cc1 (stereo not given) | > 100 µM (inactive) | > 100 µM (inactive) | > 100 µM (inactive) | > 100 µM (inactive) |  | 39.6 µM (inactive) |  | 47 µM (inactive) | > 100 µM (inactive) | > 100 µM (inactive) | > 100 µM (inactive) |  | > 100 µM (inactive) | > 100 µM (inactive) | > 100 µM (inactive) | > 100 µM (inactive) | > 100 µM (inactive) | 87.7 µM (inactive)
3 | Cc1ccc(SSCCCS(=O)O)cc1 | 37.4 µM (inactive) | 24 µM (inactive) | 30.1 µM (inactive) | 0.435 µM (active) |  | 0.766 µM (active) | 28.8 µM (inactive) | 11.4 µM (inactive) | 38.6 µM (inactive) | 39 µM (inactive) | 47 µM (inactive) | 74.6 µM (inactive) | 21.6 µM (inactive) | 32.8 µM (inactive) | 20.7 µM (inactive) | 45.7 µM (inactive) | 30.1 µM (inactive) | 34.2 µM (inactive)
4 | CCC12CCCN(Cc3ccccc3)C1c1c(n(C)c3ccccc13)[C@H](C(=O)OC)C2 (stereo not given in full) | > 239 µM (inactive) | 112 µM (inactive) | 146 µM (inactive) | > 239 µM (inactive) | 10.6 µM (inactive) | > 239 µM (inactive) | > 239 µM (inactive) | > 239 µM (inactive) |  | > 239 µM (inactive) | > 239 µM (inactive) | 147 µM (inactive) | > 239 µM (inactive) | > 239 µM (inactive) | > 239 µM (inactive) | > 239 µM (inactive) | 142 µM (inactive) | 211 µM (inactive)
5 | O=C1NC2(O)c3ccccc3C(=O)C2(O)N1c1ccccc1 (stereo not given) |  | > 100 µM (inactive) | > 100 µM (inactive) | > 100 µM (inactive) | > 100 µM (inactive) | > 100 µM (inactive) | > 100 µM (inactive) | > 100 µM (inactive) | > 100 µM (inactive) | > 100 µM (inactive) | > 100 µM (inactive) | > 100 µM (inactive) | > 100 µM (inactive) | > 100 µM (inactive) | > 100 µM (inactive) | > 100 µM (inactive) |  | > 100 µM (inactive)
6 | Cc1ccc(NC(=O)CCC(=O)C2Cc3ccccc3C2=O)cc1C (stereo not given) | > 100 µM (inactive) | > 100 µM (inactive) | > 100 µM (inactive) | > 100 µM (inactive) | > 100 µM (inactive) | > 100 µM (inactive) | > 100 µM (inactive) | > 100 µM (inactive) | > 100 µM (inactive) | > 100 µM (inactive) | > 100 µM (inactive) | > 100 µM (inactive) | > 100 µM (inactive) | > 100 µM (inactive) | > 100 µM (inactive) | > 100 µM (inactive) | > 100 µM (inactive) | > 100 µM (inactive)
7 | COc1ccc2c3c([nH]c2c1CC=C(C)C)C(=O)C=C(C)C3=O | > 25 µM (inactive) | > 25 µM (inactive) | 16.2 µM (inactive) | > 25 µM (inactive) | > 25 µM (inactive) | > 25 µM (inactive) | > 25 µM (inactive) |  | > 25 µM (inactive) | > 25 µM (inactive) | > 25 µM (inactive) | > 25 µM (inactive) | > 25 µM (inactive) | > 25 µM (inactive) | > 25 µM (inactive) | > 25 µM (inactive) | > 25 µM (inactive) | > 25 µM (inactive)
8 | CC1=CCP(C(F)(F)F)P(C(F)(F)F)C1 (stereo not given) | > 100 µM (inactive) | > 100 µM (inactive) | > 100 µM (inactive) | > 100 µM (inactive) | > 100 µM (inactive) | > 100 µM (inactive) | > 100 µM (inactive) | > 100 µM (inactive) | > 100 µM (inactive) | > 100 µM (inactive) | > 100 µM (inactive) | > 100 µM (inactive) | > 100 µM (inactive) | > 100 µM (inactive) | > 100 µM (inactive) | > 100 µM (inactive) | > 100 µM (inactive) | > 100 µM (inactive)
9 | CC(=O)/C(=N\O)C(=O)NCCc1ccccc1 | > 100 µM (inactive) | 45.9 µM (inactive) | 46 µM (inactive) | 73.8 µM (inactive) | > 100 µM (inactive) | 68.7 µM (inactive) | 58.3 µM (inactive) | 41.8 µM (inactive) | > 100 µM (inactive) | > 100 µM (inactive) | > 100 µM (inactive) | > 100 µM (inactive) | > 100 µM (inactive) | > 100 µM (inactive) | > 100 µM (inactive) | > 100 µM (inactive) | > 100 µM (inactive) | 38.8 µM (inactive)
10 | N#CCCN(c1ccc(-c2nnc(NC(=O)CNNC(=O)CC(=O)Nc3ccccc3)s2)cc1)S(=O)(=O)c1ccccc1 | > 100 µM (inactive) | > 100 µM (inactive) | 71.1 µM (inactive) | 39.4 µM (inactive) | 79.6 µM (inactive) | 49.2 µM (inactive) | > 100 µM (inactive) | > 100 µM (inactive) |  | 76.6 µM (inactive) | 52.6 µM (inactive) | > 100 µM (inactive) | > 100 µM (inactive) | > 100 µM (inactive) | > 100 µM (inactive) | > 100 µM (inactive) | 52.1 µM (inactive) | > 100 µM (inactive)
11 | O=C1CCC2(CCC(=O)NC2=O)C(=O)N1 | > 100 µM (inactive) | > 100 µM (inactive) | > 100 µM (inactive) | > 100 µM (inactive) |  | > 100 µM (inactive) | > 100 µM (inactive) | > 100 µM (inactive) | > 100 µM (inactive) | > 100 µM (inactive) | > 100 µM (inactive) |  | > 100 µM (inactive) | > 100 µM (inactive) | > 100 µM (inactive) | > 100 µM (inactive) | > 100 µM (inactive) | > 100 µM (inactive)
12 | CCOC(=O)CCCO | > 100 µM (inactive) |  | > 10 µM (inactive) | > 100 µM (inactive) | > 100 µM (inactive) | > 100 µM (inactive) | > 100 µM (inactive) | > 100 µM (inactive) | > 100 µM (inactive) | > 100 µM (inactive) | > 100 µM (inactive) | > 100 µM (inactive) | > 100 µM (inactive) | > 100 µM (inactive) | > 100 µM (inactive) | > 100 µM (inactive) | > 100 µM (inactive) | > 100 µM (inactive)
13 | Cn1cnc([N+](=O)[O-])c1Sc1nnc(-c2ccc(Cl)cc2)n1C | 15.1 µM (inactive) | 11.9 µM (inactive) | 13.1 µM (inactive) |  | 12.1 µM (inactive) | 10.7 µM (inactive) | 20.1 µM (inactive) | 7.67 µM (inactive) | 13.6 µM (inactive) | 16.6 µM (inactive) | 13.9 µM (inactive) | 20.5 µM (inactive) | 17.5 µM (inactive) | 50 µM (inactive) | 16.2 µM (inactive) | 14.2 µM (inactive) |  | 11.3 µM (inactive)
14 | CCOP(=O)(C/C(=N/NC(C)(C)C)C(=O)Nc1nc2ccc(C)cc2s1)OCC | > 100 µM (inactive) | > 100 µM (inactive) | > 100 µM (inactive) | > 100 µM (inactive) |  | > 100 µM (inactive) | > 100 µM (inactive) | > 100 µM (inactive) | > 100 µM (inactive) | > 100 µM (inactive) | > 100 µM (inactive) | > 100 µM (inactive) | > 100 µM (inactive) | > 100 µM (inactive) | > 100 µM (inactive) | > 100 µM (inactive) | > 100 µM (inactive) | > 100 µM (inactive)
15 | CCN1C(=O)C(N=[N+]=[N-])(c2ccccc2)C(=O)c2ccccc21 (stereo not given) | > 100 µM (inactive) | > 100 µM (inactive) | 61.8 µM (inactive) | 21.6 µM (inactive) | 31.4 µM (inactive) | 39 µM (inactive) | > 100 µM (inactive) | > 100 µM (inactive) | 41.9 µM (inactive) | 57.1 µM (inactive) | 56.8 µM (inactive) | > 100 µM (inactive) |  | 60.3 µM (inactive) | > 100 µM (inactive) | > 100 µM (inactive) | 56.5 µM (inactive) | > 100 µM (inactive)
16 | Cc1cc(C(C)C)cc(=O)c(O)c1 | > 100 µM (inactive) | > 100 µM (inactive) | > 100 µM (inactive) | > 100 µM (inactive) | > 100 µM (inactive) |  | > 100 µM (inactive) | > 100 µM (inactive) | > 100 µM (inactive) |  | > 100 µM (inactive) | > 100 µM (inactive) | > 100 µM (inactive) | > 100 µM (inactive) | > 100 µM (inactive) | > 100 µM (inactive) | > 100 µM (inactive) | > 100 µM (inactive)
